# Several values for one entry are separate records, joined by “and”; a condition that tells them apart may be missing. Equal values may be shown once.
# Key:
# male cynomolgus monkeys = assay: Serum triglycerides of male cynomolgus monkeys treated by gastric intubation; assay type: in vivo, cynomolgus monkey; conditions: 1.0 mg/0.4 ml/kg by gastric intubation, daily; mean of 3 monkeys
# Method: Five male cynomologus monkeys were employed in the study. […] Compound 1 is an RAR antagonist or inhibitor. The remaining two were similarly treated with a vehicle to serve as control. Serum samples were collected on days 1, 8, 15, 22 and 25 for triglyceride determination. Serum samples from days 8, 15, 22 and 25 were also assayed for the concentration of Compound 1.
# [1] = Stability to normal light; assay type: physicochemical
# male SJL mice [2] = assay: Serum triglycerides (STG) in male SJL mice; assay type: in vivo, mouse; conditions: 20 mg/kg oral daily
# Method: Male SJL mice were dosed orally with vehicle, Compound 1 (an RAR pan-antagonist), or Compound 3 (an RARE antagonist) for 4 consecutive days. The structure and synthesis of Compound 1 is described in Example I. The structure of Compound 3 is shown below, and the compound was synthesized using routine methods:
# The test compounds were dissolved in corn oil and given at a dosage/volume of 20 mg/5 ml/kg.
# On day 3, serum triglycerides (STG) were determined from samples collected at 7 a.m.
# (§1) On day 4, animals were fasted after dosing, starting at 8 a.m. Following 6 hours of fasting, blood samples were collected prior to intravenous injection of WR-1339 at 100 mg/5 ml/kg. Additional serum samples were collected at 1 and 2 hours after WR-1339 injection. WR-1339 is a detergent that inactivates lipoprotein lipase and thus prevents the removal of triglycerides from circulation. By measuring the increase of STG after WR-1339 administration in fasted animals, the hepatic triglyceride (HTG) output during fasting can be estimated.
# (§2) Due to the lack of effect of Compound 3 at 20 mg/kg, the dose was increased to 100 mg/kg in the same set of mice. STG was determined on day 3 prior to dosing (Day 3, 8 a.m.). […] To ensure that Compound 3 would be bioavailable, Compound 3 was dissolved in DMSO and given by intraperitoneal injections, once at 4 p.m. on day 3 and once at 8 a.m. on day 4, at a dosage of 100 mg/kg/injection. Administration of WR-1339 and blood collections on day 4 were similarly conducted as described above.
# male SJL mice [3] = assay: Hepatic triglyceride (HTG) output after WR-1339 injection in fasted male SJL mice; assay type: in vivo, mouse; conditions: 20 mg/kg oral daily for 4 days; fasted
# Method: as §1, §2
# female ZDF rats [4] = assay: Serum triglycerides and cholesterol in female ZDF rats, Compound 1 and Compound 2 at 10 mg/kg; assay type: in vivo, rat; conditions: 10 mg/kg oral
# Method: A similar experiment to that described above was performed. Briefly, female ZDF rats (12 weeks old) were fed either a PM 5008 diet or a GMI 13004 diet. Control vehicle consisted of 2% DMSO and 98% corn oil. Compound 1 and Compound 2 were administered at a dosage of 10 mg/kg body weight. Dosings were administered at approximately 8 a.m. Serum was collected on the first day of dosing at approximately 8 a.m. (Day 1, 0 hour) and 2 p.m. (Day 1, 6 hour); the fourth day of dosing at approximately 8 a.m. (Day 4, 0 hour); and the last day of dosing at approximately 8 a.m. (Day 7, 0 hour) and 2 p.m. (Day 7, 6 hour). The levels of triglycerides and cholesterol in the serum samples were measured. The results are shown in Table 2 and are illustrated graphically in FIGS. 3A and 3B.
# female ZDF rats [5] = assay: Serum triglycerides and cholesterol in female ZDF rats on a diabetogenic high fat diet, Compound 1 at 0.03-0.3 mg/kg; assay type: in vivo, rat; conditions: for Cholesterol day 8, 0 hr, Mean / Triglycerides day 8, 0 hr, Mean / Cholesterol day 0, 4 hr, Mean / Triglycerides day 0, 4 hr, Mean / Cholesterol day 7, 4 hr, Mean / Triglycerides day 7, 4 hr, Mean / Cholesterol day 3, 4 hr, Mean / Triglycerides day 3, 4 hr, Mean: group mean of 4 rats; for Cholesterol day 8, 0 hr, Mean / Triglycerides day 8, 0 hr, Mean / Cholesterol day 8, 0 hr / Triglycerides day 8, 0 hr: 24 hours after the last dosing; for Cholesterol day 0, 4 hr, Mean / Triglycerides day 0, 4 hr, Mean / Cholesterol day 0, 4 hr / Triglycerides day 0, 4 hr: day before dosing (baseline); for Cholesterol day 7, 4 hr, Mean / Triglycerides day 7, 4 hr, Mean / Cholesterol day 7, 4 hr / Triglycerides day 7, 4 hr: seventh day of dosing; for Cholesterol day 3, 4 hr, Mean / Triglycerides day 3, 4 hr, Mean / Cholesterol day 3, 4 hr / Triglycerides day 3, 4 hr: third day of dosing; for Cholesterol day 8, 0 hr / Triglycerides day 8, 0 hr / Cholesterol day 0, 4 hr / Triglycerides day 0, 4 hr / Cholesterol day 7, 4 hr / Triglycerides day 7, 4 hr / Cholesterol day 3, 4 hr / Triglycerides day 3, 4 hr: individual animals
# Method: ZDF rats, which are hyperlipidemic and diabetic, were used as a model to test the effect of RAR antagonists/inhibitors on serum lipids. Female ZDF rats (10–11 weeks old) were fed a GMI 13004 diet, a diabetogenic, high fat diet, for 5–6 weeks. Compound 1 was dissolved in vehicle (2% DMSO, 98% corn oil). Compound 1 was administered at a dosage of 0.03 mg/kg, 0.1 mg/kg, and 0.3 mg/kg body weight. Dosings were performed at approximately 8 a.m. Serum was collected at approximately 12 p.m. on the day before dosing (Day 0, 4 hour); the third day of dosing (Day 3, 4 hour); the seventh day of dosing (Day 7, 4 hour); and 24 hours after the last dosing (Day 8, 0 hour). The levels of triglycerides and cholesterol in the serum samples were measured.
# [6] = GMI 13004 diet, group mean of 5 rats, first day of dosing, 2 p.m.
# [7] = GMI 13004 diet, group mean of 5 rats, first day of dosing, about 8 a.m. (baseline)
# [8] = GMI 13004 diet, group mean of 5 rats, fourth day of dosing, 8 a.m.
# [9] = GMI 13004 diet, group mean of 5 rats, last day of dosing, 2 p.m.
# [10] = GMI 13004 diet, group mean of 5 rats, last day of dosing, 8 a.m.
# [11] = GMI 13004 diet, individual animals, first day of dosing, 2 p.m.
# [12] = GMI 13004 diet, individual animals, first day of dosing, about 8 a.m. (baseline)
# [13] = GMI 13004 diet, individual animals, fourth day of dosing, 8 a.m.
# [14] = GMI 13004 diet, individual animals, last day of dosing, 2 p.m.
# [15] = GMI 13004 diet, individual animals, last day of dosing, 8 a.m.
smiles,measurement,setting,value
"CCc1ccc(C2=CC(C)(C)Sc3ccc(C#Cc4ccc(C(=O)O)cc4)cc32)cc1 [Compound 1, 4-[[4-(4-ethylphenyl)-2,2-dimethyl-(2H)-thiochromen-6-yl]-ethynyl]-benzoic acid]","Serum triglycerides Day 25, Mean",male cynomolgus monkeys,24.0 mg/dL
same,stability to normal light,[1],relatively stable to normal light
same,"non-fasting STG (Day 3, 8 a.m.)",male SJL mice [2],appeared to lower
same,"fasting STG (Day 4, 2 p.m.)",male SJL mice [2]; after 6 hours of fasting,but not fasting STG
same,HTG output after WR-1339 injection,male SJL mice [3],reduction of HTG output
same,effect on lowering serum cholesterol,female ZDF rats [4],more modest effect
same,serum triglycerides as % of pre-treatment levels,female ZDF rats [4],about 7%
same,"Cholesterol day 1, 6 hr, Mean",female ZDF rats [4]; [6],107
same,"Triglycerides day 1, 6 hr, Mean",female ZDF rats [4]; [6],1183
same,"Cholesterol day 1, 0 hr, Mean",female ZDF rats [4]; [7],131
same,"Triglycerides day 1, 0 hr, Mean",female ZDF rats [4]; [7],1410
same,"Cholesterol day 4, 0 hr, Mean",female ZDF rats [4]; [8],82
same,"Triglycerides day 4, 0 hr, Mean",female ZDF rats [4]; [8],138
same,"Cholesterol day 7, 6 hr, Mean",female ZDF rats [4]; [9],90
same,"Triglycerides day 7, 6 hr, Mean",female ZDF rats [4]; [9],86
same,"Cholesterol day 7, 0 hr, Mean",female ZDF rats [4]; [10],89
same,"Triglycerides day 7, 0 hr, Mean",female ZDF rats [4]; [10],72
same,"Cholesterol day 1, 6 hr",female ZDF rats [4]; [11],132 and 90 (2×) and 126 and 96
same,"Triglycerides day 1, 6 hr",female ZDF rats [4]; [11],1248 and 750 and 1674 and 978 and 1266
same,"Cholesterol day 1, 0 hr",female ZDF rats [4]; [12],162 and 108 (2×) and 156 and 120
same,"Triglycerides day 1, 0 hr",female ZDF rats [4]; [12],1770 and 1182 and 1500 and 1278 and 1320
same,"Cholesterol day 4, 0 hr",female ZDF rats [4]; [13],78 and 90 (2×) and 84 and 66
same,"Triglycerides day 4, 0 hr",female ZDF rats [4]; [13],174 and 132 and 114 and 102 and 168
same,"Cholesterol day 7, 6 hr",female ZDF rats [4]; [14],102 and 72 and 132 and 48 and 96
same,"Triglycerides day 7, 6 hr",female ZDF rats [4]; [14],96 and 66 and 60 (2×) and 150
same,"Cholesterol day 7, 0 hr",female ZDF rats [4]; [15],96 (2×) and 84 and 66 and 102
same,"Triglycerides day 7, 0 hr",female ZDF rats [4]; [15],78 and 96 and 60 (2×) and 66
same,serum triglyceride levels as % of pre-treatment triglyceride levels,female ZDF rats [5]; 0.03 mg/kg oral,about 59%
same,"Cholesterol day 8, 0 hr, Mean",female ZDF rats [5]; 0.03 mg/kg oral,110
same,"Triglycerides day 8, 0 hr, Mean",female ZDF rats [5]; 0.03 mg/kg oral,781
same,"Cholesterol day 0, 4 hr, Mean",female ZDF rats [5]; 0.03 mg/kg oral,123
same,"Triglycerides day 0, 4 hr, Mean",female ZDF rats [5]; 0.03 mg/kg oral,1334
same,"Cholesterol day 7, 4 hr, Mean",female ZDF rats [5]; 0.03 mg/kg oral,109
same,"Triglycerides day 7, 4 hr, Mean",female ZDF rats [5]; 0.03 mg/kg oral,749
same,"Cholesterol day 3, 4 hr, Mean",female ZDF rats [5]; 0.03 mg/kg oral,105
same,"Triglycerides day 3, 4 hr, Mean",female ZDF rats [5]; 0.03 mg/kg oral,794
same,"Cholesterol day 8, 0 hr",female ZDF rats [5]; 0.03 mg/kg oral,108 (2×) and 93 and 129
same,"Triglycerides day 8, 0 hr",female ZDF rats [5]; 0.03 mg/kg oral,846 and 531 and 1230 and 516
same,"Cholesterol day 0, 4 hr",female ZDF rats [5]; 0.03 mg/kg oral,114 and 129 (2×) and 120
same,"Triglycerides day 0, 4 hr",female ZDF rats [5]; 0.03 mg/kg oral,1200 and 1245 and 1944 and 945
same,"Cholesterol day 7, 4 hr",female ZDF rats [5]; 0.03 mg/kg oral,111 and 105 and 96 and 123
same,"Triglycerides day 7, 4 hr",female ZDF rats [5]; 0.03 mg/kg oral,771 and 468 and 855 and 903
same,"Cholesterol day 3, 4 hr",female ZDF rats [5]; 0.03 mg/kg oral,93 and 96 and 129 and 102
same,"Triglycerides day 3, 4 hr",female ZDF rats [5]; 0.03 mg/kg oral,663 and 651 and 1197 and 666
same,serum triglyceride levels as % of pre-treatment triglyceride levels,female ZDF rats [5]; 0.1 mg/kg oral,~40%
same,"Cholesterol day 8, 0 hr, Mean",female ZDF rats [5]; 0.1 mg/kg oral,105
same,"Triglycerides day 8, 0 hr, Mean",female ZDF rats [5]; 0.1 mg/kg oral,479
same,"Cholesterol day 0, 4 hr, Mean",female ZDF rats [5]; 0.1 mg/kg oral,125
same,"Triglycerides day 0, 4 hr, Mean",female ZDF rats [5]; 0.1 mg/kg oral,1208
same,"Cholesterol day 7, 4 hr, Mean",female ZDF rats [5]; 0.1 mg/kg oral,107
same,"Triglycerides day 7, 4 hr, Mean",female ZDF rats [5]; 0.1 mg/kg oral,505
same,"Cholesterol day 3, 4 hr, Mean",female ZDF rats [5]; 0.1 mg/kg oral,106
same,"Triglycerides day 3, 4 hr, Mean",female ZDF rats [5]; 0.1 mg/kg oral,497
same,"Cholesterol day 8, 0 hr",female ZDF rats [5]; 0.1 mg/kg oral,102 (2×) and 105 and 111
same,"Triglycerides day 8, 0 hr",female ZDF rats [5]; 0.1 mg/kg oral,390 and 339 and 486 and 699
same,"Cholesterol day 0, 4 hr",female ZDF rats [5]; 0.1 mg/kg oral,123 (2×) and 129 and 126
same,"Triglycerides day 0, 4 hr",female ZDF rats [5]; 0.1 mg/kg oral,1284 and 993 and 1197 and 1356
same,"Cholesterol day 7, 4 hr",female ZDF rats [5]; 0.1 mg/kg oral,114 and 90 and 111 (2×)
same,"Triglycerides day 7, 4 hr",female ZDF rats [5]; 0.1 mg/kg oral,429 and 384 and 618 and 588
same,"Cholesterol day 3, 4 hr",female ZDF rats [5]; 0.1 mg/kg oral,129 and 84 and 96 and 114
same,"Triglycerides day 3, 4 hr",female ZDF rats [5]; 0.1 mg/kg oral,402 and 360 and 681 and 546
same,serum triglyceride levels as % of pre-treatment triglyceride levels,female ZDF rats [5]; 0.3 mg/kg oral,~14%
same,"Cholesterol day 8, 0 hr, Mean",female ZDF rats [5]; 0.3 mg/kg oral,115
same,"Triglycerides day 8, 0 hr, Mean",female ZDF rats [5]; 0.3 mg/kg oral,215
same,"Cholesterol day 0, 4 hr, Mean",female ZDF rats [5]; 0.3 mg/kg oral,131
same,"Triglycerides day 0, 4 hr, Mean",female ZDF rats [5]; 0.3 mg/kg oral,1550
same,"Cholesterol day 7, 4 hr, Mean",female ZDF rats [5]; 0.3 mg/kg oral,119
same,"Triglycerides day 7, 4 hr, Mean",female ZDF rats [5]; 0.3 mg/kg oral,215
same,"Cholesterol day 3, 4 hr, Mean",female ZDF rats [5]; 0.3 mg/kg oral,101
same,"Triglycerides day 3, 4 hr, Mean",female ZDF rats [5]; 0.3 mg/kg oral,282
same,"Cholesterol day 8, 0 hr",female ZDF rats [5]; 0.3 mg/kg oral,102 and 120 and 123 and 114
same,"Triglycerides day 8, 0 hr",female ZDF rats [5]; 0.3 mg/kg oral,222 and 180 and 195 and 261
same,"Cholesterol day 0, 4 hr",female ZDF rats [5]; 0.3 mg/kg oral,105 and 141 and 156 and 123
same,"Triglycerides day 0, 4 hr",female ZDF rats [5]; 0.3 mg/kg oral,882 and 1725 and 2244 and 1350
same,"Cholesterol day 7, 4 hr",female ZDF rats [5]; 0.3 mg/kg oral,99 and 126 and 132 and 120
same,"Triglycerides day 7, 4 hr",female ZDF rats [5]; 0.3 mg/kg oral,195 and 222 and 267 and 174
same,"Cholesterol day 3, 4 hr",female ZDF rats [5]; 0.3 mg/kg oral,93 and 96 and 108 (2×)
same,"Triglycerides day 3, 4 hr",female ZDF rats [5]; 0.3 mg/kg oral,282 and 234 and 297 and 315
same,effect on serum cholesterol levels,female ZDF rats [5]; 0.03-0.3 mg/kg oral,"effective at lowering serum cholesterol levels, although the effect was more modest than observed for serum triglycerides"

# — US7105566B2, “Methods of treatment during vascular procedures” (Allergan, Inc., priority 2002, dated 2006)
